In patent publication US20080095856A1, “Encapsulated Nanoparticles for Drug Delivery” (priority 2006, published 2008):
Peptide text beside a SMILES is read from it. * marks the point of attachment. X1 = O=C(O)[C@H]1CSC(c2nc3ccc(N*)cc3s2)=N1

Columns and labels:
[1] = DPPH radical scavenger assay of antioxidative activity before and after SAS processing; format: biochemical; conditions: maximum UV absorbance before and after addition of quercetin
From the text: The antioxidative activity of quercetin has not been diminished by this supercritical fluid process for nanoparticle formation. A radical scavenger DPPH (2,2,-diphenyl-1-picrylhydrazyl) was used to measure the EC50 value of DPPH at maximum UV absorbance before and after addition of quercetin.
Quercetin. Quercetin has been encapsulated with PLA (MW 50,000 and 100,000) using the following process parameters: T=40 C, P=100 bar, CO2 flow rate 50 g/min, 5:100 quercetin:polymer ratio using methanol as the cosolvent. Results can be seen in FIGS. 4A-4C. […] A radical scavenger DPPH (2,2,-diphenyl-1-picrylhydrazyl) was used to measure the EC50 value of DPPH at maximum UV absorbance before and after addition of quercetin.

[2] = Biodistribution of SKLQ-aminoluciferin by BLI in L2G85 mice; format: in vivo
From the text: PSA is a chymotrypsin-like enzyme which specifically cleaves the C-terminus of glutamine (Q) in the peptide sequence, SKLQ-aminoluciferin. Prodrugs have been used to take advantage of this specificity of PSA. […] Where the peptides or prodrugs are encapsulated with polymer, the current shortcomings in delivery of tumor-specific peptides is overcome. The peptides or drugs can be encapsulated with a protective polymer coating, and the payload released in the vascularized tumor regions. This approach prevents non-specific distribution of the drug and ensures stability of the peptide/drug, and utilizes the active proteases that are specific to a disease state to activate a prodrug at the region of interest.
The strategies developed for these studies are utilized in the study of biodistribution of luciferin nanoparticles. The nanoparticles are also tested using a xenograft model of prostate cancer. Appropriate cell lines have been developed for conducting experiments to study human prostate cancer models in animals. […] Both LNCaP and PC3M cells have successfully been implanted into SCID mice, and their growth kinetics have been successfully quantified using BLI. Luciferase present in the cells is used as the read out for delivery of luciferin and can also be used as for assessing tumor burden when we transition to testing chemotherapeutic agents. […]

EC50 value of DPPH, before vs after SAS processing [1]	stability in the body ([2]; in vivo, acted upon by various enzymes)	Structure (SMILES)	distribution in the animal ([2]; L2G85 mice)
the same before and after SAS processing		O=c1c(O)c(-c2ccc(O)c(O)c2)oc2cc(O)cc(O)c12 [quercetin]	
	unstable in the body	CC(C)C[C@H](NC(=O)[C@H](CCCCN)NC(=O)[C@@H](N)CO)C(=O)N[C@@H](CCC(N)=O)C(=O)Nc1ccc2nc(C3=N[C@@H](C(=O)O)CS3)sc2c1 [SKLQ-aminoluciferin] (H-SKLQ-X1; N-terminus and C-terminus assumed)	distributed non-specifically throughout the animal
